Experimental data taken from ChEMBL document CHEMBL3632539, “Identification of Bidentate Salicylic Acid Inhibitors of PTP1B” (ACS Med Chem Lett, 2015).
Active and inactive are the calls of the source. The calls are words filed in the database; no cut-off is given here.

What was measured:
[1] = species: Homo sapiens; assay: Inhibition of GST-tagged PRL2 A/S mutant (unknown origin) at 10 uM by plate reader analysis using DiFMUP as substrate
[2] = system: CHO; assay: Inhibition of PTP1B in CHO cells assessed as increase in phosphorylation of transfected human insulin receptor by western blot analysis; assay type: cell-based; details: Cricetulus griseus
[3] = target: T1, Tyrosine-protein phosphatase non-receptor type 2 (Homo sapiens) (UniProt P17706); assay: Inhibition of GST-tagged TCPTP (unknown origin) at 10 uM by plate reader analysis using DiFMUP as substrate
T1 sequence (whole entry): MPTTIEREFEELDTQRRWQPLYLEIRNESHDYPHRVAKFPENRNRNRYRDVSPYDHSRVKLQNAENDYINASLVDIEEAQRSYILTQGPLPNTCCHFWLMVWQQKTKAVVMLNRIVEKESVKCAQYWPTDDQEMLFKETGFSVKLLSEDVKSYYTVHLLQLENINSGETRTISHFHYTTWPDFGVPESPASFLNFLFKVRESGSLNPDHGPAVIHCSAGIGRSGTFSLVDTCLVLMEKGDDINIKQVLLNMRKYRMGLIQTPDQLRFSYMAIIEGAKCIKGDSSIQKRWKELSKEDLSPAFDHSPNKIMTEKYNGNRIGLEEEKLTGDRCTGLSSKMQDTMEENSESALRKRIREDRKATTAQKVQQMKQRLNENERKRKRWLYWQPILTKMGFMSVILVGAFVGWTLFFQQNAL

[4] = target: T2, Tyrosine-protein phosphatase non-receptor type 1 (Homo sapiens) (UniProt P18031); assay: Inhibition of GST-tagged PTP1B (unknown origin) at 10 uM by plate reader analysis using DiFMUP as substrate
T2 sequence (whole entry): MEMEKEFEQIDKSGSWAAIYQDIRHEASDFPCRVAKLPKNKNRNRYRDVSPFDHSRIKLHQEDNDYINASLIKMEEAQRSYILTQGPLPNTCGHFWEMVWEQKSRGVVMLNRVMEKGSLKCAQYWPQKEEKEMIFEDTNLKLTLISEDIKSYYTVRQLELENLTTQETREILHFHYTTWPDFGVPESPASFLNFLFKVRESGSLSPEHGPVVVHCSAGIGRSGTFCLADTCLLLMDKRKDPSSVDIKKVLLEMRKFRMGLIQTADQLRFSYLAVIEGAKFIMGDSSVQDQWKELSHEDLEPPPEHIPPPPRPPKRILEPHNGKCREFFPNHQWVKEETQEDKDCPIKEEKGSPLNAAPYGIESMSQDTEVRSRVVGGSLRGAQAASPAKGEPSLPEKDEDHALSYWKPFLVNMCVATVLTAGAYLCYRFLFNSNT

[5] = target: T3, Tyrosine-protein phosphatase non-receptor type 1 (Homo sapiens, UniProt P18031); assay: Inhibition of GST-tagged PTP1B (unknown origin) by plate reader analysis using DiFMUP as substrate
T3 sequence (P18031 whole entry): T2 sequence (whole entry)

[6] = target: Receptor-type tyrosine-protein phosphatase F (Homo sapiens) (UniProt P10586); assay: Inhibition of GST-tagged LAR (unknown origin) at 10 uM by plate reader analysis using DiFMUP as substrate
[7] = target: T4, Receptor-type tyrosine-protein phosphatase S (Homo sapiens, UniProt Q13332); assay: Inhibition of GST-tagged PTP-sigma (unknown origin) by plate reader analysis using DiFMUP as substrate
[8] = target: T5, Receptor-type tyrosine-protein phosphatase C (Homo sapiens) (UniProt P08575); assay: Inhibition of GST-tagged CD45 D1D2 domain (unknown origin) at 10 uM by plate reader analysis using DiFMUP as substrate
T5 sequence (whole entry): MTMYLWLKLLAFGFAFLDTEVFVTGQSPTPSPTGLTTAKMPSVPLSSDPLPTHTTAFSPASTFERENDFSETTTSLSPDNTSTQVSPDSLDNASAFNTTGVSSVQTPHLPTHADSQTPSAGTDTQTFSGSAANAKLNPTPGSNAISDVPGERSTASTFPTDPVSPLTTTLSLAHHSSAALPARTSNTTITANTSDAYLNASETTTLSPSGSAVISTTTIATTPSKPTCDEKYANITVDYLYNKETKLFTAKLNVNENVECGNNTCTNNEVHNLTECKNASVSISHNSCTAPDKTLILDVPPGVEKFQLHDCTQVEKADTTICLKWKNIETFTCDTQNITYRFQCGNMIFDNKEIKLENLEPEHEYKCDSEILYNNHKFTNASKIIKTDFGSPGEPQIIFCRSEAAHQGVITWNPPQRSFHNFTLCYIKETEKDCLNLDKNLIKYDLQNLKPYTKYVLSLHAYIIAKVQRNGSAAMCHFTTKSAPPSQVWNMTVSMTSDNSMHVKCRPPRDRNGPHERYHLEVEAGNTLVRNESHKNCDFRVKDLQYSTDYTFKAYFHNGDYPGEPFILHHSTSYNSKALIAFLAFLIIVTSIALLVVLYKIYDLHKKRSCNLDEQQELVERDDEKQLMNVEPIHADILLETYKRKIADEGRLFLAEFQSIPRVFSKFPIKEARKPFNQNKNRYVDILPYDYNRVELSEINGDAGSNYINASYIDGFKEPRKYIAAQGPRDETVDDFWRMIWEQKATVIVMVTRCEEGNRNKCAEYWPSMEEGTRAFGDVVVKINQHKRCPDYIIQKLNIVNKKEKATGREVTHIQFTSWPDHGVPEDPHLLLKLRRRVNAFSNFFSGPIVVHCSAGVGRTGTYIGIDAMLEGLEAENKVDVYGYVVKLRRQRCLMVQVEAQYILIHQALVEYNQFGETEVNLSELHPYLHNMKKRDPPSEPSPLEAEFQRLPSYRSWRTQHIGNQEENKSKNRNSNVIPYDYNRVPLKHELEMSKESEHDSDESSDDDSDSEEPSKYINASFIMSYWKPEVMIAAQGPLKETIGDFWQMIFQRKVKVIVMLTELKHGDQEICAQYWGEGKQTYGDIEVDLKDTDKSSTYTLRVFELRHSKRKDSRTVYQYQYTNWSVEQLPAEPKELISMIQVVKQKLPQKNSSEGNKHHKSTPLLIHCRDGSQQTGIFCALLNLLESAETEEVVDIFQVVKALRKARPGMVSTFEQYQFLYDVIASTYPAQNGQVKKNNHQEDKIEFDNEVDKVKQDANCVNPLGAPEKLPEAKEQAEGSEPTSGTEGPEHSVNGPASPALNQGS

[9] = target: T4, Receptor-type tyrosine-protein phosphatase S; assay: Inhibition of GST-tagged PTP-sigma (unknown origin) at 10 uM by plate reader analysis using DiFMUP as substrate
[10] = target: T6, Dual specificity protein phosphatase 22 (Homo sapiens) (UniProt Q9NRW4); assay: Inhibition of GST-tagged MKPX (unknown origin) at 10 uM by plate reader analysis using DiFMUP as substrate
T6 sequence (whole entry): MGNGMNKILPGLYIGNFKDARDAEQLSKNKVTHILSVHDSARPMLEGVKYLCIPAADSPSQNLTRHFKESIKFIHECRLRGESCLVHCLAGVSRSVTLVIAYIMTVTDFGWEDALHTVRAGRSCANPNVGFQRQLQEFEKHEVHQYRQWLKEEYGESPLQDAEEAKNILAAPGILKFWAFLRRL

[11] = system: CHO; assay: Cytotoxicity against CHO cells expressing human insulin receptor at 0.78 to 50 uM after 72 hrs by cell-titer blue assay; assay type: cell-based, Cricetulus griseus; details: chinese hamster
[12] = target: T3, Tyrosine-protein phosphatase non-receptor type 1; assay: Competitive inhibition of GST-tagged PTP1B (unknown origin) by plate reader analysis using DiFMUP as substrate
[13] = system: CHO; assay: Inhibition of PTP1B in CHO cells assessed as increase in phosphorylation of transfected human insulin receptor at 50 uM by western blot analysis; assay type: cell-based; details: Cricetulus griseus
[14] = target: Receptor-type tyrosine-protein phosphatase F (Homo sapiens) (UniProt P10586); assay: Inhibition of GST-tagged LAR (unknown origin) by plate reader analysis using DiFMUP as substrate
[15] = target: T7, Papain (Carica papaya) (UniProt P00784); assay: Inhibition of papaya papain by plate reader analysis using Z-Phe-Arg-pNA substrate
T7 sequence (whole entry): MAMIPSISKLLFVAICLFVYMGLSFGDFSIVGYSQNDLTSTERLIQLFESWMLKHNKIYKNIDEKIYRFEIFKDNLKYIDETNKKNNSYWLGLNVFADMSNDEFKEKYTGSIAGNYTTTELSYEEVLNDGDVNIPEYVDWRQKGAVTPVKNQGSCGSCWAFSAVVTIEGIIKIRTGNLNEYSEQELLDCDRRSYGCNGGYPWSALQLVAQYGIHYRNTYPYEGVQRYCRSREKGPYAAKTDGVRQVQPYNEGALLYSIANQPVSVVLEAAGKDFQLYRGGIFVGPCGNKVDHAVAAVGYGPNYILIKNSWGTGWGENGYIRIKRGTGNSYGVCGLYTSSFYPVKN

[16] = species: Homo sapiens; assay: Inhibition of GST-tagged PRL2 A/S mutant (unknown origin) by plate reader analysis using DiFMUP as substrate
[17] = target: T6, Dual specificity protein phosphatase 22 (Homo sapiens); assay: Inhibition of GST-tagged MKPX (unknown origin) by plate reader analysis using DiFMUP as substrate
[18] = species: Homo sapiens; assay: Selectivity ratio, ratio of IC50 for PTP sigma (unknown origin) to IC50 for PTP1B (unknown origin)
[19] = species: Homo sapiens; assay: Selectivity ratio, ratio of IC50 for PTP1B (unknown origin) to IC50 for PTP sigma (unknown origin)

T4 sequence (Q13332 whole entry, the tested form may be a part): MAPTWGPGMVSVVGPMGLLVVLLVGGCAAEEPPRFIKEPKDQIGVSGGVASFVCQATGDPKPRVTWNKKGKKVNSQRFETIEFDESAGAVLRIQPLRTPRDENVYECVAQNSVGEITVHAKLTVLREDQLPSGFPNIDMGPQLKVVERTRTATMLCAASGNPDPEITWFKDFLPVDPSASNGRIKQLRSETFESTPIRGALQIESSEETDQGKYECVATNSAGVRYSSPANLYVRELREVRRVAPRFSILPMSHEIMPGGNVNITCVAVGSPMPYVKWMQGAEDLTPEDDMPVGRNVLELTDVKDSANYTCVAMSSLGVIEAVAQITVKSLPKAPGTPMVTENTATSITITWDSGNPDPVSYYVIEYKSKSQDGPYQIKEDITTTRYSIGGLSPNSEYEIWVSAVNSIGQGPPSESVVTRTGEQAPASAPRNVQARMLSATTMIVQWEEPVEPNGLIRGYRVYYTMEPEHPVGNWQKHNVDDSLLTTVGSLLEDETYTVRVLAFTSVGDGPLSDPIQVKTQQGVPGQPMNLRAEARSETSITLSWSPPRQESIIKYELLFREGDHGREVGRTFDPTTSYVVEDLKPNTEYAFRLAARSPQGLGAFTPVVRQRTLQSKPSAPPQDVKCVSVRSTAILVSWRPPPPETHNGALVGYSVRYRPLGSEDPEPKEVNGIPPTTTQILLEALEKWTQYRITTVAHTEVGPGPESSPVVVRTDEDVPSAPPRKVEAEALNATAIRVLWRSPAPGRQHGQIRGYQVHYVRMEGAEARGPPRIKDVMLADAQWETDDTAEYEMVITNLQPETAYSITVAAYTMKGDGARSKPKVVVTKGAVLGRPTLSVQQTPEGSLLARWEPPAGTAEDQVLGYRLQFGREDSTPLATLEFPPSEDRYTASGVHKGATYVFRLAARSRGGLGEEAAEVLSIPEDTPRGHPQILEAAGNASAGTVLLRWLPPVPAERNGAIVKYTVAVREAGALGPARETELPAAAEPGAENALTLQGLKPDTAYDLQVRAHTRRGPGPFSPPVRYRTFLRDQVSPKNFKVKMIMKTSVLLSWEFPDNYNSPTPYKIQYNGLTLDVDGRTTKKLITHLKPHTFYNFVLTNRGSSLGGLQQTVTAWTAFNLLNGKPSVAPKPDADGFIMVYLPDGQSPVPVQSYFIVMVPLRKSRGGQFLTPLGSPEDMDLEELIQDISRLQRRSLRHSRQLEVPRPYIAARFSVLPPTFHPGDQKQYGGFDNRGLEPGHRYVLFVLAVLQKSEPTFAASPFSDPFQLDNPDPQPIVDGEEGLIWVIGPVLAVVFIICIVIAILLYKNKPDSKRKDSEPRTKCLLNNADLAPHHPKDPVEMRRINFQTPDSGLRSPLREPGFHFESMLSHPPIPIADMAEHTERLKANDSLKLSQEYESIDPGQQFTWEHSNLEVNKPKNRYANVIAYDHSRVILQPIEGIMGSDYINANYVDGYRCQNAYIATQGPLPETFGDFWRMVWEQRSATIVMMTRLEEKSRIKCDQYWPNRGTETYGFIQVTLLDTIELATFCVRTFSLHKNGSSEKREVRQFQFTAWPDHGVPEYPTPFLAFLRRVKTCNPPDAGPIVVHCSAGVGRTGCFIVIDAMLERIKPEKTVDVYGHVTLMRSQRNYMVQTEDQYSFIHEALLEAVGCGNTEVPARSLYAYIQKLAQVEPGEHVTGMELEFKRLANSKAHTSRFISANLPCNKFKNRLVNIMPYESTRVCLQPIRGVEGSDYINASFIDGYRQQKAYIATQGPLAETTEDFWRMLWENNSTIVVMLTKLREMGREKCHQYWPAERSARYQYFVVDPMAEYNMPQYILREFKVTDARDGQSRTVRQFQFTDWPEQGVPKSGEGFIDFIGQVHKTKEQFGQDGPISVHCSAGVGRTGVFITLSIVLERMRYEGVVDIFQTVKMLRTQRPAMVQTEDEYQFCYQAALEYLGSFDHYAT
Chain of Receptor-type tyrosine-protein phosphatase F (Homo sapiens) (P10586 whole entry): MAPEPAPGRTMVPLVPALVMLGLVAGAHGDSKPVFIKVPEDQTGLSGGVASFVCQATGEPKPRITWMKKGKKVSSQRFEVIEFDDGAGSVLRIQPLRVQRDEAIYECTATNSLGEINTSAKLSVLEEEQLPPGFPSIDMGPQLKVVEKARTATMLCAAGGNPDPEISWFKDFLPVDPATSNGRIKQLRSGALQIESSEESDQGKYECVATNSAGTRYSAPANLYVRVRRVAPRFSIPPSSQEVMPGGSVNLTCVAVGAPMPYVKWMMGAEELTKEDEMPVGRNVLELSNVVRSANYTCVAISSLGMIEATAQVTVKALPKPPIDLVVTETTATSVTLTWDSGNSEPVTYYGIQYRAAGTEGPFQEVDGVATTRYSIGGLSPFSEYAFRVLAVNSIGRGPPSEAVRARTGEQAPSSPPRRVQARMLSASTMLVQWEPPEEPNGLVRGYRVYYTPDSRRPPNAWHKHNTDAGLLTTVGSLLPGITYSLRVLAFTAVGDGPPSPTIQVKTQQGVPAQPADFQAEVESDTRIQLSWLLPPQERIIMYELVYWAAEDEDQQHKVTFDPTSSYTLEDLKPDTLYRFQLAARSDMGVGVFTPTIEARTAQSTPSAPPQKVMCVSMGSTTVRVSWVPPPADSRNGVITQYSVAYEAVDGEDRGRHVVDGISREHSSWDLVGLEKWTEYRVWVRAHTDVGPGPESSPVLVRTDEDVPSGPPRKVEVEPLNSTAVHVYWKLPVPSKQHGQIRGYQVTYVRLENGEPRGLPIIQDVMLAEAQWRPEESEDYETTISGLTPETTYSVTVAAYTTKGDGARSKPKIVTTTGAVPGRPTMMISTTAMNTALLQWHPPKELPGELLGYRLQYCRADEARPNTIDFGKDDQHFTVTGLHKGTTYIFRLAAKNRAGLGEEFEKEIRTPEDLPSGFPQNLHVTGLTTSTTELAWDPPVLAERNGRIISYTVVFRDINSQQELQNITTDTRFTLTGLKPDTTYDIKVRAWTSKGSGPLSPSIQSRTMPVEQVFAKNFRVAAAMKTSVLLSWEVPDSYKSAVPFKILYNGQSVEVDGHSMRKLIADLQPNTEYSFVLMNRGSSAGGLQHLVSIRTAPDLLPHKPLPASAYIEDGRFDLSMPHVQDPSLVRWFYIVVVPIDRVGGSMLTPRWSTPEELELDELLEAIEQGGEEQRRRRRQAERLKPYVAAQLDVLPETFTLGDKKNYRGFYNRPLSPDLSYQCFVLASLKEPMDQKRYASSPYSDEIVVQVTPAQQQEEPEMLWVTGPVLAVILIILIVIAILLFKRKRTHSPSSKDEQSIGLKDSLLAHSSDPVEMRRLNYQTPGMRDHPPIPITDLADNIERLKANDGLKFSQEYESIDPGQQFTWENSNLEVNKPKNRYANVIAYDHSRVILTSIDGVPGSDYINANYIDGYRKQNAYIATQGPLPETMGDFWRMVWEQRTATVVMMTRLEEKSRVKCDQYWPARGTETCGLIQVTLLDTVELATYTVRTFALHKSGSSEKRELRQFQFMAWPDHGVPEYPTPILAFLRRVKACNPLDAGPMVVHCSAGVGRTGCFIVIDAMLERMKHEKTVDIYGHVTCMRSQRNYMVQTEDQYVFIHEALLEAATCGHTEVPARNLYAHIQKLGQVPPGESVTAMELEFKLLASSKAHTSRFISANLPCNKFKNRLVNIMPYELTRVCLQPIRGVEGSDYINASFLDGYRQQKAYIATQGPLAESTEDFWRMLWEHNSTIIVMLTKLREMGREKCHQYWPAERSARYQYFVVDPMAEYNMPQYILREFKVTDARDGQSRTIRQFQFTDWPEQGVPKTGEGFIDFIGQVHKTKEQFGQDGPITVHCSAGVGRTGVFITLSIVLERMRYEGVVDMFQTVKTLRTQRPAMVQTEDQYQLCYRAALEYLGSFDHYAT

Compound	inhibition [1]	Activity [2]	inhibition [3]	inhibition [4]	IC50 [5]	inhibition [6]	IC50 [7]	inhibition [8]	inhibition [9]	inhibition [10]	Activity [11]	Ki [12]	Activity [13]	inhibition [14]	inhibition [15]	inhibition [16]	inhibition [17]	Ratio IC50 [18]	Ratio IC50 [19]
O=C(CCCCCn1cc(CN(CC(=O)N(Cc2ccc(C3CCCCC3)cc2)c2ccc(C(=O)O)c(O)c2)S(=O)(=O)c2cccc3cccnc23)nn1)Nc1ccc(C(=O)O)c(O)c1	inactive	Dose-dependent effect	> 90%	> 90%	2400 nM	inactive	900 nM	inactive	> 90%	inactive	Non-toxic	–	–	–	–	–	–	–	–
O=C(CCn1cc(CN(CC(=O)N(Cc2ccc(C3CCCCC3)cc2)c2ccc(C(=O)O)c(O)c2)S(=O)(=O)c2cccc3cccnc23)nn1)Nc1ccc(C(=O)O)c(O)c1	inactive	–	> 90%	> 90%	6100 nM	inactive	11800 nM	inactive	> 90%	inactive	–	–	–	–	–	–	–	–	–
O=C(Cn1cc(CN(CC(=O)N(Cc2ccc(C3CCCCC3)cc2)c2ccc(C(=O)O)c(O)c2)S(=O)(=O)c2cccc3cccnc23)nn1)Nc1ccc(C(=O)O)c(O)c1	inactive	Dose-dependent effect	> 90%	> 90%	3600 nM	inactive	15600 nM	inactive	> 90%	inactive	Non-toxic	1830 nM	–	–	–	–	–	–	–
VANADATE	–	–	–	–	–	–	–	–	–	–	–	–	Active	–	–	–	–	–	–
CN(CC(=O)N(Cc1ccc(C2CCCCC2)cc1)c1ccc(C(=O)O)c(O)c1)S(=O)(=O)c1cccc2cccnc12	–	–	–	–	–	–	–	–	–	–	–	5660 nM	–	inactive	inactive	inactive	inactive	–	–
O=C(CCCn1cc(CN(CC(=O)N(Cc2ccc(C3CCCCC3)cc2)c2ccc(C(=O)O)c(O)c2)S(=O)(=O)c2cccc3cccnc23)nn1)Nc1ccc(C(=O)O)c(O)c1	inactive	Dose-dependent effect	> 90%	> 90%	1700 nM	inactive	7900 nM	inactive	> 90%	inactive	Non-toxic	–	–	–	–	–	–	4	–
O=C(CCCCn1cc(CN(CC(=O)N(Cc2ccc(C3CCCCC3)cc2)c2ccc(C(=O)O)c(O)c2)S(=O)(=O)c2cccc3cccnc23)nn1)Nc1ccc(C(=O)O)c(O)c1	inactive	–	> 90%	> 90%	2300 nM	inactive	600 nM	inactive	> 90%	inactive	–	–	–	–	–	–	–	–	4
